Results as given in PMC6751662, “Pharmacological and functional similarities of the human neuropeptide Y system in C. elegans challenges phylogenetic views on the FLP/NPR system” (Cell Communication and Signaling : CCS, 2019).
Read-outs that look alike come from different tables or passages of the source. Ends that are not written are not given here.

Key:
NPR-4b [1] = molecular target: T1, NPR-4b (Caenorhabditis elegans, UniProt A0A078BTK0); assay: cAMP reporter gene assay, Gi/o (inhibition of forskolin-induced cAMP), NPR-4b; format: cell-based, C. elegans
T1 sequence (A0A078BTK0 1-376): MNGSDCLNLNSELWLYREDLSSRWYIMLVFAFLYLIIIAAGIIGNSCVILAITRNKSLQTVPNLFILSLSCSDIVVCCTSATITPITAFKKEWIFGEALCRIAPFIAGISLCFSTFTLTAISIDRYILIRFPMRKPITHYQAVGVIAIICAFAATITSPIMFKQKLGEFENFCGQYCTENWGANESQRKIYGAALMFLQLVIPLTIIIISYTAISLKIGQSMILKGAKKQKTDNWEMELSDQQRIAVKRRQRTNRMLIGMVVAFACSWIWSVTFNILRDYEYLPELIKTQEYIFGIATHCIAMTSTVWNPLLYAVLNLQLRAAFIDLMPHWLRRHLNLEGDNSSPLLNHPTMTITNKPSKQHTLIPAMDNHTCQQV
Method: (§1) Activation of Gs and Gi/o was assessed with a cAMP reporter gene assay. HEK293 cells grown to 70–80% confluency in 6-well plates were transiently co-transfected with vectors encoding the receptor and the cAMP reporter gene plasmid pGL4.29 [luc2P/CRE/Hygro] (Promega; 4 μg total, 1:1 ratio) using Metafectene Pro (3 μl/μg DNA; Biontex) following the manufacturer’s instructions. 16 h post transfection, the cells were seeded into white 384-well plates at a density of 20,000 cells/well. On the next day, the medium was removed and the cells were stimulated with 20 μl of peptide solution (or forskolin as positive control) in serum-free DMEM for 4 h. For measuring Gi/o activity, the peptide solutions additionally contained 1 μM forskolin to elevate cellular cAMP levels. After incubation, the luciferase substrate OneGlo in lysis buffer (Promega) was added and the luminescence was measured in a microplate reader Tecan Spark (Tecan).
(§2) For in vitro activation, data is presented as mean ± SEM of at least three independent experiments conducted in technical triplicate. […] For the C. elegans NPRs, we considered the strongest response elicited by any of the peptides downstream of a particular receptor as the receptor’s maximal signal. This may or may not be the biological maximum that can be reached by the ‘true’ endogenous agonist. For the human receptors, the response to the established endogenous agonist reflected the maximal signal.

NPR-11 [2] = molecular target: T2, NPR-11 (Caenorhabditis elegans, UniProt Q18179); assay: cAMP reporter gene assay, Gi/o (inhibition of forskolin-induced cAMP), NPR-11; format: cell-based, C. elegans; details: for Emax: HEK293, read-out: Emax ± SEM [%]
T2 construct: expressed in transfected cells; host or cells: HEK293, transient
T2 sequence (Q18179 1-402): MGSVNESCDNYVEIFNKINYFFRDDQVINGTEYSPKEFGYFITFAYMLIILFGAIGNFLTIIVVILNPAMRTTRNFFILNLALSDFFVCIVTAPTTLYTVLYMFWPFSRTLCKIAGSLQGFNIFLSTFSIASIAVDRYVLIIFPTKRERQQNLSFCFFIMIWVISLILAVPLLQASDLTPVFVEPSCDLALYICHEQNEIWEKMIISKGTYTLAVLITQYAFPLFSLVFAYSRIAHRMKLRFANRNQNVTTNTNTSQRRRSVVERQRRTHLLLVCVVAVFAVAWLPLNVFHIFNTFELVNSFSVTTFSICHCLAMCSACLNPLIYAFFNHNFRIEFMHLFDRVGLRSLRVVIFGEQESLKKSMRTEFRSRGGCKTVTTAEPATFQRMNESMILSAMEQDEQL
Method: as §1, with “(Tecan). Data were analyzed with GraphPad Prism 5.03 and are shown as fold of basal or fold of forskolin in case of Gαi/o activity.” for “(Tecan).”
as §2

NPR-1 [3] = molecular target: T3, NPR-1 (Caenorhabditis elegans, UniProt Q18534); assay: cAMP reporter gene assay, Gi/o (inhibition of forskolin-induced cAMP), NPR-1; format: cell-based, C. elegans; parameters: host or cells: HEK293; details: for Emax: HEK293, read-out: Emax ± SEM [%]
T3 sequence (Q18534 1-457): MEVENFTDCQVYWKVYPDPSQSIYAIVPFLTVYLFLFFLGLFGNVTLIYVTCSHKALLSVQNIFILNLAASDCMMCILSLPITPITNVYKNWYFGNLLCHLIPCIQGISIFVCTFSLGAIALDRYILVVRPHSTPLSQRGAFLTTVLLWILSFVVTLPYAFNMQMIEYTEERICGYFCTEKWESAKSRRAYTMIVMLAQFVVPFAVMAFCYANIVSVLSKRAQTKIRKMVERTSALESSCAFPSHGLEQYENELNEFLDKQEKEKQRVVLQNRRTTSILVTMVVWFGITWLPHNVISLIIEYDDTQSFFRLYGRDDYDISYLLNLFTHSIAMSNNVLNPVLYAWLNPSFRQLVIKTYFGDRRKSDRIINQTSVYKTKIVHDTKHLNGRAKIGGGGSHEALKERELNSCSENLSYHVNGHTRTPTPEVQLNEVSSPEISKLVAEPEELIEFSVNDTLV
Method: as §1, with “(Tecan). Data were analyzed with GraphPad Prism 5.03 and are shown as fold of basal or fold of forskolin in case of Gαi/o activity.” for “(Tecan).”
as §2

NPR-5b [4] = molecular target: T4, NPR-5b (Caenorhabditis elegans, UniProt Q6F3C9); assay: cAMP reporter gene assay, Gi/o (with forskolin), NPR-5b; format: cell-based, C. elegans; parameters: Emax: unit not given here; details: NPR-5b, transiently transfected HEK293 cells
T4 sequence (Q6F3C9 1-433): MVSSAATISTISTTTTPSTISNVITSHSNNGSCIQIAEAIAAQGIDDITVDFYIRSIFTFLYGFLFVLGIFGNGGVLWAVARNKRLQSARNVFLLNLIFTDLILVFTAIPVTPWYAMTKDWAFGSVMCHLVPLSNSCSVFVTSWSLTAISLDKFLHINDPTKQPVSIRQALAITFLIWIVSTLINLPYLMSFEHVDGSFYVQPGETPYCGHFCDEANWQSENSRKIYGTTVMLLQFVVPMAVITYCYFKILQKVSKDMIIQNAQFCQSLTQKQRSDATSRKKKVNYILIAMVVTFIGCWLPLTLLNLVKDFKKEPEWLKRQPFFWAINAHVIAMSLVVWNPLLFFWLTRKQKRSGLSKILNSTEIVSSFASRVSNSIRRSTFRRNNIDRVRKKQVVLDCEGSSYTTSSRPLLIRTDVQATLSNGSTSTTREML
Method: as §1, §2

[5] = Solubility of crude peptides in RP-HPLC purification solvents; format: physicochemical; details: H2O + 0.1% TFA / acetonitrile + 0.08% TFA (RP-HPLC purification conditions)
Method: C-terminally amidated peptides were synthesized in 15 μmol scale by solid-phase peptide synthesis following the Fmoc/tert-butyl strategy (reviewed in [18]) on Rink amide resin using an automated Syro II peptide synthesizer (MultiSynTech). Automated coupling reactions were performed as double couplings using 8 eq Nα-protected amino acid, activated in situ with equimolar amounts of Oxyma and […] in dimethylformamide (DMF) for 30 min. Automated Fmoc deprotection was carried out with 40% (v/v) piperidine in DMF for 3 min and 20% (v/v) piperidine in DMF for 10 min. Reactive side chains of amino acids were protected by tert-butyl (tBu for Tyr, Ser, Asp, Glu, Thr), trityl (Trt for Asn, Gln, His), 2,2,4,6,7-pentamethyldihydrobenzofuran-5-sulfonyl (Pbf for Arg) and tert-butyloxycarbonyl (Boc for Lys). Peptides were cleaved off the resin using trifluoroacetic acid (TFA)/H2O/triisopropylsilane (90/5/5, v/v/v) for 2.5 h at room temperature and precipitated in ice cold diethyl ether. All peptides were purified to > 95% purity by RP-HPLC (Shimadzu) using a Phenomenex Jupiter 10 μm Proteo 90 Å (C12) column. For most peptides, linear gradients of H2O + 0.1% trifluoroacetic acid (TFA) (eluent A) and acetonitrile (ACN) + 0.08% TFA (eluent B) were applied at a flow rate of 10 ml/minute. […] FLP-27, FLP-33, and FLP-34 were solubilized by ultrasonication at 50 °C for 10 min and subsequently purified under standard solvent conditions used pre-heated HPLC systems. […] Peptide identity was verified by matrix-assisted laser desorption/time of flight (MALDI-ToF; Ultraflex III MALDI-ToF/ToF, Bruker Daltonics) mass spectrometry, and peptide purity was evaluated with analytical RP-HPLC.

NPR-3 = assay: cAMP reporter gene assay, Gs (no forskolin), NPR-3; format: cell-based, C. elegans; details: 4 h, NPR-3-transfected HEK293, CRE-luciferase reporter, mean of >=3 independent experiments
Method: as §1, with “(Tecan). Data were analyzed with GraphPad Prism 5.03 and are shown as fold of basal or fold of forskolin in case of Gαi/o activity.” for “(Tecan).”
as §2

NPR-4b [6] = molecular target: T1, NPR-4b; assay: cAMP reporter gene assay, Gs (no forskolin), NPR-4b; format: cell-based, C. elegans; details: 4 h, NPR-4b-transfected HEK293, CRE-luciferase reporter, mean of >=3 independent experiments
Method: as §1, with “(Tecan). Data were analyzed with GraphPad Prism 5.03 and are shown as fold of basal or fold of forskolin in case of Gαi/o activity.” for “(Tecan).”
as §2

NPR-5b [7] = molecular target: T4, NPR-5b; assay: cAMP reporter gene assay, Gs (no forskolin), NPR-5b; format: cell-based, C. elegans; details: 4 h, NPR-5b-transfected HEK293, CRE-luciferase reporter, mean of >=3 independent experiments
Method: as §1, with “(Tecan). Data were analyzed with GraphPad Prism 5.03 and are shown as fold of basal or fold of forskolin in case of Gαi/o activity.” for “(Tecan).”
as §2

NPR-6 = assay: cAMP reporter gene assay, Gs (no forskolin), NPR-6; format: cell-based, C. elegans; details: 4 h, NPR-6-transfected HEK293, CRE-luciferase reporter, mean of >=3 independent experiments
Method: as §1, with “(Tecan). Data were analyzed with GraphPad Prism 5.03 and are shown as fold of basal or fold of forskolin in case of Gαi/o activity.” for “(Tecan).”
as §2

NPR-11 [8] = molecular target: T2, NPR-11; assay: cAMP reporter gene assay, Gs (no forskolin), NPR-11; format: cell-based, C. elegans; details: 4 h, NPR-11-transfected HEK293, CRE-luciferase reporter, mean of >=3 independent experiments
Method: as §1, with “(Tecan). Data were analyzed with GraphPad Prism 5.03 and are shown as fold of basal or fold of forskolin in case of Gαi/o activity.” for “(Tecan).”
as §2

NPR-1 [9] = molecular target: T3, NPR-1; assay: cAMP reporter gene assay, Gs (no forskolin), NPR-1; format: cell-based, C. elegans; parameters: host or cells: HEK293; details: 4 h, NPR-1-transfected HEK293, CRE-luciferase reporter, mean of >=3 independent experiments
Method: as §1, with “(Tecan). Data were analyzed with GraphPad Prism 5.03 and are shown as fold of basal or fold of forskolin in case of Gαi/o activity.” for “(Tecan).”
as §2

[10] = 1 µM forskolin (positive control)
[11] = 100 µM forskolin (positive control)

Molecule: KHEYLRF-NH2 [FLP-14]
- EC50 (NPR-4b [1]): 2430 nM
- Emax (NPR-4b [1]; NPR-4b, forskolin (1 µM) set to 1.00, lower values correspond to high Gi/o activity, transiently transfected HEK293 cells, mean ± SEM of at least three independent experiments, SEM): -0.77 ± 0.2%
- EC50 (NPR-11 [2]): 1890 nM
- Emax (NPR-11 [2]; SEM): -0.86 ± 0.19%
- Emax (NPR-1 [3]; SEM): -0.51 ± 0.13%
- EC50 (NPR-1 [3]; SEM): 25.1 nM
- Emax at NPR-1 (NPR-1 [3]; full concentration-response curve, inhibition of 1 µM forskolin-induced cAMP, transfected HEK293 (Figure S1)): 53 % of FLP-21 induced response

Molecule: ADISTFASAINNAGRLRY-NH2 [FLP-34-1]
- Emax (NPR-5b [4]; forskolin (1 µM) set to 1.00, increase of cAMP, mean ± SEM of at least three independent experiments, SEM): 6.7 ± 8.21
- EC50 (NPR-5b [4]; full concentration-response curve, with 1 µM forskolin, increase of cAMP, at least three independent experiments): 20.1 µM
- Emax (NPR-11 [2]; SEM): -0.62 ± 0.1%
- EC50 (NPR-11 [2]; SEM): 20 nM
- solubility of crude peptide [5]: partly insoluble
- EC50 (NPR-1 [3]): 578 nM
- Emax (NPR-1 [3]; SEM): -0.65 ± 0.14%

Molecule: ALNRDSLVASLNNAERLRF-NH2 [FLP-34-2]
- EC50 (NPR-11 [2]; EC50 at NPR-11, full concentration-response curve, inhibition of 1 µM forskolin-induced cAMP, transfected HEK293 (Figure S1, Table S11)): 0.7 nM
- Emax (NPR-11 [2]; SEM): -0.65 ± 0.14%
- EC50 (NPR-11 [2]; SEM): 0.631 nM
- solubility of crude peptide [5]: partly insoluble

Molecule: C=C[C@@]1(C)CC(=O)[C@]2(O)[C@@]3(C)[C@@H](O)CCC(C)(C)[C@@H]3[C@H](O)[C@H](OC(C)=O)[C@@]2(C)O1 [forskolin, reference compound]
- cAMP assay Gs, NPR-3 (NPR-3; [10]): 20.07 x-fold of basal
- cAMP assay Gs, NPR-3 (NPR-3; [11]): 51.90 x-fold of basal
- cAMP assay Gs, NPR-4b (NPR-4b [6]; [10]): 16.52 x-fold of basal
- cAMP assay Gs, NPR-4b (NPR-4b [6]; [11]): 44.21 x-fold of basal
- cAMP assay Gs, NPR-5b (NPR-5b [7]; [10]): 23.17 x-fold of basal
- cAMP assay Gs, NPR-5b (NPR-5b [7]; [11]): 67.99 x-fold of basal
- cAMP assay Gs, NPR-6 (NPR-6; [10]): 12.19 x-fold of basal
- cAMP assay Gs, NPR-6 (NPR-6; [11]): 46.24 x-fold of basal
- cAMP assay Gs, NPR-11 (NPR-11 [8]; [10]): 16.67 x-fold of basal
- cAMP assay Gs, NPR-11 (NPR-11 [8]; [11]): 60.68 x-fold of basal
- cAMP assay Gs, NPR-1 (NPR-1 [9]; [10]): 15.39 x-fold of basal
- cAMP assay Gs, NPR-1 (NPR-1 [9]; [11]): 76.79 x-fold of basal
